A word on the IC50: it is the midpoint of a concentration-inhibition curve.

The results in this text go back to patent US20160122340A1, “HISTONE DEACETYLASE INHIBITORS BASED ON DERIVATIVES OF TRICYCLIC POLYHYDROACRIDINE AND ANALOGS POSSESSING FUSED SATURATED FIVE-AND-SEVEN-MEMBERED RINGS” (QUIMATRYX, S.L., priority 2013, published 2016).

A value given as a limit tells only on which side of the number the result lay.

For one assay, the target named is T1, Human HDAC2 (Homo sapiens, UniProt Q92769).
T1 construct: Full length with C-terminal His tag, MW=60 kDa; His (C); purchased BioMol SE-500; host or cells: baculovirus / Sf9 cells
The experiment in a line: In vitro HDAC2 inhibition, fluorogenic peptide substrate. Type of assay: biochemical. Particulars: read-out: IC50 (μM) HDAC-2. The protocol:
(§1) In Vitro Inhibitory Activity of Histone Deacetylase: Human Isoforms HDAC1, 2, 3, 4, 5, 6, 7, 8, 9, 10 and 11 and HeLa Cell Line Nuclear Extract (IC50 Data)
(§2) All HDAC assays were performed using acetylated AMC-labeled peptide substrate: • Substrate for isoforms HDAC1, 2, 3, 6, 10, 11 and HeLa nuclear extract assays: Acetylated fluorogenic peptide from p53 residues 379-382 (RHKKAc). • Substrate for isoforms HDAC 4, 5, 7, 9: Fluorogenic Boc-L-Lys(ε-trifluoroacetyl)-AMC. • Substrate for HDAC8 assays: Acetylated fluorogenic peptide from p53 residues 379-382 (RHKAcKAc).
(§3) 50 μM of substrate peptide (see ‘substrate peptides’ section above) and an optimal concentration of the corresponding enzyme (see ‘enzymes’ section above) in the assay buffer and 1% final concentration of DMSO were incubated in the presence of gradient concentrations of inhibitors (10-dose IC50 mode with 3-fold serial dilution) at 30° C. for 2 h. The reactions were carried out in a 96-well microplate for fluorometry in a 50 μl reaction volume. After the deacetylation reaction, Fluor-de-Lys-Developer (BioMol Cat. # KI-105) was added to each well to digest the deacetylated substrate, thus producing the fluorescent signal. The reaction was allowed to develop for 45 minutes at 30° C. with 5% CO2; then the fluorescent signal was measured with an excitation wavelength at 360 nm and an emission wavelength at 460 nm in a microplate-reading fluorometer (GeminiXS; Molecular Devices, Sunnyvale, Calif.). A curve of Deacetylated Standard (Biomol, Cat. # KI-142; made from 100 μM with 1:2 dilution and 10-doses, 6 μl) allowed the conversion of fluorescent signal into micromoles of deacetylated product. All experiments were performed in triplicate. IC50 was calculated by fitting the experimental data to a dose-response curve. DMSO was used as negative control; Trichostatin A (Biomol Cat. # GR-309) was used as positive control inhibitor.

The next assay deals with T2, Human HDAC3/NcoR2 (Homo sapiens, UniProt O15379).
T2 construct: Complex of human HDAC3, full length with C-terminal His tag, MW=49.7 kDa; His (C); purchased BioMol SE-507; host or cells: baculovirus expression system
The experiment in a line: In vitro HDAC3 inhibition, fluorogenic peptide substrate. The format is biochemical. Particulars: read-out: IC50 (μM) HDAC-3. As for the experimental part:
as §1, §2, §3

The target of the next assay is T3, Human HDAC4 (Homo sapiens, UniProt P56524).
T3 construct: Amino acids 627-1085 with N-terminal GST tag, MW=75.2 kDa; GST (N); purchased BioMol, Hamburg, Germany; host or cells: baculovirus expression system
Nature of the assay: In vitro HDAC4 inhibition, fluorogenic substrate. Type of assay: biochemical. Particulars: read-out: IC50 (μM) HDAC-4. The protocol: as §1, §2, §3

Another assay concerns the target T4, Human HDAC8 (Homo sapiens, UniProt Q9BY41).
T4 construct: Full length, MW=42 kDa, expressed in an E. coli expression system; purchased BioMol SE-145; host or cells: E. coli
T4 sequence (Q9BY41 1-377): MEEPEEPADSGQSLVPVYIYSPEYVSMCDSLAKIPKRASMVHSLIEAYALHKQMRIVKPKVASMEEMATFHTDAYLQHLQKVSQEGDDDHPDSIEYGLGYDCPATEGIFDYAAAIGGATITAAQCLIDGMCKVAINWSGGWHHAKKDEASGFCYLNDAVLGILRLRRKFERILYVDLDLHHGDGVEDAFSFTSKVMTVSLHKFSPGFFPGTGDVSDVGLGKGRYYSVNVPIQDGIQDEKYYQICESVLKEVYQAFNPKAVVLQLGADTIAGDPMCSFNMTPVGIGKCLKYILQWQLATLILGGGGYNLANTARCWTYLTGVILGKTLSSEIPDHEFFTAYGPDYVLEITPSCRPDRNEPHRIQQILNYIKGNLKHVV
The experiment in a line: In vitro HDAC8 inhibition, fluorogenic peptide substrate. Particulars: read-out: IC50 (μM) HDAC-8. Type of assay: biochemical. As for the experimental part:
as §1, §2, §3

The target in the next assay is T5, Human HDAC10 (Homo sapiens, UniProt Q969S8).
T5 construct: Amino acids 1-631 with Nterminal GST tag, MW=96 kDa; GST (N); purchased BioMol SE-559; host or cells: baculovirus / Sf9 cells
T5 sequence (Q969S8 1-631): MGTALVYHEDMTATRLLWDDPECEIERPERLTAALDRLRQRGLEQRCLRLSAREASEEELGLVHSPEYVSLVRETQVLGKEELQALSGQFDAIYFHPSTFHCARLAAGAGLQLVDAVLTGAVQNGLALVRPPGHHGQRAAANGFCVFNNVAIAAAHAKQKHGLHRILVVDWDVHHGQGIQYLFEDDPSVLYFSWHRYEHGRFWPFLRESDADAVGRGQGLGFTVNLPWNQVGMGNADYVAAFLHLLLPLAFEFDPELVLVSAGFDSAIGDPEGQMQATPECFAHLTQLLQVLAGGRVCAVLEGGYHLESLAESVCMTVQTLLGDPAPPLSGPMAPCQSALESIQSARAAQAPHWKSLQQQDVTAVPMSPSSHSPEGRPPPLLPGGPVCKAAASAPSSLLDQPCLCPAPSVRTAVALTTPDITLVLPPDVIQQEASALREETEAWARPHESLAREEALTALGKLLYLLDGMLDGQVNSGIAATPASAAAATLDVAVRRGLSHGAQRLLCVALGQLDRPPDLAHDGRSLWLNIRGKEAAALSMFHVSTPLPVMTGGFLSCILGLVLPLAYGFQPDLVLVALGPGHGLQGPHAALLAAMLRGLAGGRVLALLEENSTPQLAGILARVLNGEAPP
Nature of the assay: In vitro HDAC10 inhibition, fluorogenic peptide substrate. Particulars: read-out: IC50 (μM) HDAC-10. The format is biochemical. The protocol: as §1, §2, §3

In assay [1] the test system is T6, Nuclear Extract from HeLa Cells.
T6 construct: 25 ng/μl Nuclear Extract from HeLa Cells: Prepared by high salt extraction of HeLa nuclei (human cervical cancer cell line)
The experiment in a line: HeLa nuclear extract HDAC activity inhibition. Type of assay: biochemical, human. The protocol: as §1, §2
as §3, with “50 μM of substrate peptide (see ‘substrate peptides’ section above) and an optimal concentration of the corresponding enzyme (see ‘enzymes’ section above) in the assay buffer and 1% final concentration of DMSO were incubated in the presence of gradient concentrations of inhibitors (10-dose IC50 mode with 3-fold serial dilution) at 30° C. for 2 h.” left out

T2 sequence (O15379 whole entry): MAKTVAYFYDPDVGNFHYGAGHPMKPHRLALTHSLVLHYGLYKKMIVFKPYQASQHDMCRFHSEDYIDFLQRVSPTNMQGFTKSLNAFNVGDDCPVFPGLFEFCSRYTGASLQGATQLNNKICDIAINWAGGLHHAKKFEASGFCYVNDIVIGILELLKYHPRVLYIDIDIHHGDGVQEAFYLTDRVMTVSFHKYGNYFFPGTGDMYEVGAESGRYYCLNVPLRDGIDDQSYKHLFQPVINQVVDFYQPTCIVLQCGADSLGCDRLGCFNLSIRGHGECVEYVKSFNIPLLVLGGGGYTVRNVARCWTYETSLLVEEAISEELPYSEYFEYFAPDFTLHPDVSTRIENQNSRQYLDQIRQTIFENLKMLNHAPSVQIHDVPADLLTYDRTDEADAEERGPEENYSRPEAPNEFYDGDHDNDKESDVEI
T2 sequence (Q9Y618 395-489 partner limits assumed): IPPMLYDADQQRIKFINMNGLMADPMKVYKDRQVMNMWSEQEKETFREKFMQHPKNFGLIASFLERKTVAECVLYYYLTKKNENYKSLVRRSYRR
T3 sequence (P56524 627-1084 limits assumed): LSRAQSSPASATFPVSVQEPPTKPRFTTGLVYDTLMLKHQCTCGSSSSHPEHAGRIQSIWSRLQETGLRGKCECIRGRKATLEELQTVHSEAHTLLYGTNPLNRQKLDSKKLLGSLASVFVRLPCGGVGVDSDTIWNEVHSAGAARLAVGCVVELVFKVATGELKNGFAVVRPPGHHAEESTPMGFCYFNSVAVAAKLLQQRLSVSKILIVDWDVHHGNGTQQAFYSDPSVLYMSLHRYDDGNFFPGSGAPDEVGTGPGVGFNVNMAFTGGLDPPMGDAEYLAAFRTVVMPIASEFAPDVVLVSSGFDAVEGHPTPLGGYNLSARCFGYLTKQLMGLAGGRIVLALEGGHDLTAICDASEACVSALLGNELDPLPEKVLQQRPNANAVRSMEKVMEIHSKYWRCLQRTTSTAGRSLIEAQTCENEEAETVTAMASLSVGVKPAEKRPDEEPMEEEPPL
T1 sequence (Q92769 whole entry): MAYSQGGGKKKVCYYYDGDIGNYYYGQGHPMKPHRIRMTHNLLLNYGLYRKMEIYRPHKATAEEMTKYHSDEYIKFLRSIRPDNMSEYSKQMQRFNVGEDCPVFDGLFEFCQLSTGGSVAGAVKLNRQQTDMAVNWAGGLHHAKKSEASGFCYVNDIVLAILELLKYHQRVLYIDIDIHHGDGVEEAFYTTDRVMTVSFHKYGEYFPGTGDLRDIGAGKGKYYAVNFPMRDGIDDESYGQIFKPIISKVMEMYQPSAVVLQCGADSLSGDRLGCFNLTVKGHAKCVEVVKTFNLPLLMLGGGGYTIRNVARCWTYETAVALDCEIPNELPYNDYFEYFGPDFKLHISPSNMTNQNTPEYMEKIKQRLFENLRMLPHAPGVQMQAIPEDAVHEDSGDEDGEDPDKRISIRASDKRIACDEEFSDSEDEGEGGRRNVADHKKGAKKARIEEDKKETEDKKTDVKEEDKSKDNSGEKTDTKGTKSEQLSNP

For the compound `O=C(CCCCCCNc1c2c(nc3ccccc13)CCCC2)NO` [Example 2, N-hydroxy-7-[(1,2,3,4-tetrahydroacridin-9-yl)amino]heptanamide], the IC50 is 0.75 µM on Human HDAC2; 0.42 µM at Human HDAC3/NcoR2; > 5 µM on Human HDAC4; 0.53 µM on Human HDAC8; 0.71 µM on Human HDAC10; 0.023 µM in assay [1].

On to `O=C(CCCCCCNc1c2c(nc3cnccc13)CCCC2)NO` [Example 8, N-hydroxy-7-[(6,7,8,9-tetrahydrobenzo[b][1,7]naphthyridin-5-yl)amino]heptanamide], for which the IC50 at Human HDAC2 was 2.41 µM; at Human HDAC3/NcoR2 it was 1.88 µM; at Human HDAC4 it was > 5 µM; on Human HDAC8, 1.09 µM; at Human HDAC10 it was 2.02 µM; in assay [1], 0.095 µM.

As for `O=C(CCCCCCNc1c2c(nc3ncccc13)CCCC2)NO` [Example 7, N-hydroxy-7-[(6,7,8,9-tetrahydrobenzo[b][1,8]naphthyridin-5-yl)amino]heptanamide], the IC50 on Human HDAC2 was 4.46 µM; on Human HDAC3/NcoR2 it was 2.44 µM; on Human HDAC4 it was > 5 µM; on Human HDAC8, 1.44 µM; at Human HDAC10, 4.02 µM; in assay [1], 0.12 µM.

As for `O=C(CCCCCCNC(=O)c1c2c(nc3ccccc13)CCCC2)NO` [Example 11, N-[7-(hydroxyamino)-7-oxoheptyl]-1,2,3,4-tetrahydroacridine-9-carboxamide], the IC50 at Human HDAC2 was 8.48 µM; on Human HDAC3/NcoR2 it was 3.62 µM; on Human HDAC4, > 5 µM; on Human HDAC8, 0.21 µM; on Human HDAC10 it was 6.89 µM; in assay [1] it was 0.42 µM.

Turning to `O=C(CCCCCNc1c2c(nc3ccccc13)CCCC2)NO` [Example 1, N-hydroxy-6-[(1,2,3,4-tetrahydroacridin-9-yl)amino]hexanamide], the IC50 at Human HDAC2 worked out at 6.09 µM; on Human HDAC3/NcoR2, 2.84 µM; at Human HDAC4, 6.19 µM; at Human HDAC8, 0.59 µM; on Human HDAC10, 5.76 µM; in assay [1], 0.066 µM.

Regarding `O=C(CCCCCCNc1c2c(nc3ccccc13)CCCCC2)NO` [Example 4, N-hydroxy-7-[(7,8,9,10-tetrahydro-6H-cyclohepta[b]quinolin-11-yl)amino]heptanamide], the IC50 is 1.92 µM on Human HDAC2; 0.74 µM at Human HDAC3/NcoR2; > 5 µM at Human HDAC4; 0.84 µM on Human HDAC8; 1.13 µM at Human HDAC10; 0.038 µM in assay [1].

On to `COc1cccc2c(NCCCCCCC(=O)NO)c3c(nc12)CCCC3` [Example 5, N-hydroxy-7-[(5-methoxy-1,2,3,4-tetrahydroacridin-9-yl)amino]heptanamide], for which the IC50 on Human HDAC2 is 1.84 µM; at Human HDAC3/NcoR2, 0.66 µM; on Human HDAC4, > 5 µM; at Human HDAC8, 1.52 µM; at Human HDAC10, 1.46 µM; in assay [1] it was 0.033 µM.

Consider `O=C(CCCCCNC(=O)c1c2c(nc3ccccc13)CCCC2)NO` [Example 10, N-[6-(hydroxyamino)-6-oxohexyl]-1,2,3,4-tetrahydroacridine-9-carboxamide], for which the IC50 on Human HDAC2 is > 5 µM; on Human HDAC3/NcoR2, > 5 µM; on Human HDAC4, > 5 µM; on Human HDAC10 it was > 5 µM; in assay [1] it was 0.85 µM.

Consider `O=C(CCCCCCNc1c2c(nc3ccccc13)CCC2)NO` [Example 3, 7-[(2,3-dihydro-1H-cyclopenta[b]quinolin-9-yl)amino]-N-hydroxyheptanamide], for which the IC50 was 0.77 µM on Human HDAC2; 0.36 µM at Human HDAC3/NcoR2; > 5 µM at Human HDAC4; 1.28 µM on Human HDAC8; 0.51 µM at Human HDAC10; 0.019 µM in assay [1].
